Measured values from patent publication US9458172B2, “Pyridinyl and pyrimidinyl sulfoxide and sulfone derivatives” (priority 2012, dated 2016).
Where two headings read alike, the source gives them in different places.

Assays:
NAMPT = NAMPT (Homo sapiens (Human), UniProt P43490); assay: Biochemical Inhibition Assay (NAMPT enzymatic reaction, NMN quantified by mass spectrometry); details: 33 nM recombinant His-tagged NAMPT, 1 μM NAM, 30 min at rt
Summary of the method: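 His-tagged human NAMPT from E. coli preincubated 15 min at rt with compound in 50 mM Hepes pH 7.5, 50 mM NaCl, 5 mM MgCl2, 1 mM THP, then reacted 30 min at rt with 1 μM NAM, […] PRPP, 2.5 mM ATP. NMN quantified by RapidFire mass spectrometry, normalized to L-Cystathionine, background subtracted.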

A2780 cells = assay: In-Vitro Cell Proliferation Assay (SRB); details: Homo sapiens, A2780, 72 h
[1] = read-out: Cell Proliferation (IC50)
[2] = read-out: Cell Proliferation (IC50), A2780 cells, 72 h, sulforhodamine B

NAMPT, sequence (P43490 whole entry): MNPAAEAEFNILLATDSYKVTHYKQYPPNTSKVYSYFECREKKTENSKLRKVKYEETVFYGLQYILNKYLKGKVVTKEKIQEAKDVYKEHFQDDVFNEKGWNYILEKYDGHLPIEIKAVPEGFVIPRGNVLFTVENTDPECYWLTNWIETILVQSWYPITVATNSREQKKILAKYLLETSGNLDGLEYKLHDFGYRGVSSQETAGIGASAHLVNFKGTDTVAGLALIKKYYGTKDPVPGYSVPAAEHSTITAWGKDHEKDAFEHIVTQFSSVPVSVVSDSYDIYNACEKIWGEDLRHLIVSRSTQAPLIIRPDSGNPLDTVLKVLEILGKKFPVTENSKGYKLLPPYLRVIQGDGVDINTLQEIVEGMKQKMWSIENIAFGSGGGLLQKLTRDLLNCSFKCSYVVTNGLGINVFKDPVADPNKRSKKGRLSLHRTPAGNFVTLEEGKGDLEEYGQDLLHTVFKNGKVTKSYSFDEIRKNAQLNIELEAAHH

| Compound | IC50 (NAMPT) [µM] | IC50 (A2780 cells; [1]) [µM] | IC50 (A2780 cells; [2]) [µM] |
| --- | --- | --- | --- |
| CCCn1cc(S(=O)(=O)c2ccc(CNC(=O)c3cc4ccncc4s3)nc2)cn1 [Example 76, Thieno[2,3-c]pyridine-2-carboxylic acid [5-(1-propyl-1H-pyrazole-4-sulfonyl)-pyridin-2-ylmethyl]-amide] | 0.0031 | 0.009 | – |
| O=C(NCc1ccc([S+]([O-])c2cc(F)cc(F)c2)cn1)c1cc2cnccc2[nH]1 (racemic) [Example 9, 1H-Pyrrolo[3,2-c]pyridine-2-carboxylic acid [5-(3,5-difluoro-benzenesulfinyl)-pyridin-2-ylmethyl]-amide (racemic)] | 0.0553 | 0.209 | – |
| CN(C)c1ncc(S(=O)(=O)c2ccc(CNC(=O)c3ccc4nccn4c3)nc2)s1 [Example 74, Imidazo[1,2-a]pyridine-6-carboxylic acid [5-(2-dimethylamino-thiazole-5-sulfonyl)-pyridin-2-ylmethyl]-amide] | 0.0078 | 0.0024 | – |
| CC(C)n1cc(S(=O)(=O)c2ccc(CNC(=O)c3ccc4nccn4c3)nc2)cn1 [Example 44] | 0.0299 | – | 0.02 |
| O=C(NCc1ccc(S(=O)(=O)C2CCOCC2)cn1)c1cc2ccncc2o1 [Example 51, Furo[2,3-c]pyridine-2-carboxylic acid [5-(tetrahydro-pyran-4-sulfonyl)-pyridin-2-ylmethyl]-amide] | 0.17 | 0.301 | – |
| O=C(NCc1ccc(S(=O)(=O)c2cc(F)cc(F)c2)cn1)c1ccc2nccn2c1 [Example 4, Imidazo[1,2-a]pyridine-6-carboxylic acid [5-(3,5-difluoro-benzenesulfonyl)-pyridin-2-ylmethyl]-amide] | 0.0071 | 0.0092 | – |
| O=C(NCc1ccc(S(=O)(=O)c2cc(F)cc(N3CCOCC3)c2)cn1)c1cnc2[nH]ncc2c1 [Example 85, 1H-Pyrazolo[3,4-b]pyridine-5-carboxylic acid [5-(3-fluoro-5-morpholin-4-yl-benzenesulfonyl)-pyridin-2-ylmethyl]-amide] | 0.0329 | 0.0097 | – |
| O=C(NCc1ccc(S(=O)(=O)c2cccc(C(F)(F)F)c2)cn1)c1cnc2[nH]ncc2c1 [Example 16, 1H-Pyrazolo[3,4-b]pyridine-5-carboxylic acid [5-(3-trifluoromethyl-benzenesulfonyl)-pyridin-2-ylmethyl]-amide] | 0.0394 | 0.0163 | – |
| O=C(NCc1ccc(S(=O)(=O)C2CCNCC2)cn1)c1ccc2nccn2c1 [Example 27, Imidazo[1,2-a]pyridine-6-carboxylic acid [5-(piperidine-4-sulfonyl)-pyridin-2-ylmethyl]-amide] | 0.572 | 0.93 | – |
| O=C(NCc1ccc(S(=O)(=O)c2cccc(OC(F)(F)F)c2)cn1)N1Cc2ccncc2C1 [Example 50, 1,3-Dihydro-pyrrolo[3,4-c]pyridine-2-carboxylic acid [5-(3-trifluoromethoxy-benzenesulfonyl)-pyridin-2-ylmethyl]-amide] | 0.0034 | 0.0135 | – |
| COc1cccc(S(=O)(=O)c2ccc(CNC(=O)c3cnc4nccn4c3)nc2)c1 [Example 33, Imidazo[1,2-a]pyrimidine-6-carboxylic acid [5-(3-methoxy-benzenesulfonyl)-pyridin-2-ylmethyl]-amide] | 0.0046 | 0.0286 | – |

Next, values leading:

| IC50 (NAMPT) [µM] | IC50 (A2780 cells; [1]) [µM] | IC50 (A2780 cells; [2]) [µM] | Compound |
| --- | --- | --- | --- |
| 0.217 | 0.116 | – | N#Cc1cncc(S(=O)(=O)c2ccc(CNC(=O)c3cc4ccncc4o3)nc2)c1 [Example 174, N-[[5-[(5-cyano-3-pyridyl)sulfonyl]-2-pyridyl]methyl]furo[2,3-c]pyridine-2-carboxamide] |
| 0.249 | 0.106 | – | CC(C)CN1CCC([S+]([O-])c2ccc(CNC(=O)c3ccc4nccn4c3)nc2)CC1 (stereo not drawn) [Example 172, N-[[5-[(1-isobutyl-4-piperidyl)sulfinyl]-2-pyridyl]methyl]imidazo[1,2-a]pyridine-6-carboxamide] |
| 0.135 | 0.328 | – | CCS(=O)(=O)c1cccc(S(=O)(=O)c2ccc(CNC(=O)c3cnc4[nH]ncc4c3)nc2)c1 [Example 106, 1H-Pyrazolo[3,4-b]pyridine-5-carboxylic acid [5-(3-ethanesulfonyl-benzenesulfonyl)-pyridin-2-ylmethyl]-amide] |
| 0.0398 | 0.0507 | – | CCCC(=O)N1CCC(S(=O)(=O)c2ccc(CNC(=O)c3cc4ccncc4o3)nc2)CC1 [Example 130, N-[[5-[(1-butanoyl-4-piperidyl)sulfonyl]-2-pyridyl]methyl]furo[2,3-c]pyridine-2-carboxamide] |
| 0.731 | – | 1.3 | O=C(NCc1ccc(S(=O)(=O)c2ccc(C(F)(F)F)nc2)cn1)c1cnc2[nH]ncc2c1 [Example 107, 1H-Pyrazolo[3,4-b]pyridine-5-carboxylic acid [5-(6-trifluoromethyl-pyridine-3-sulfonyl)-pyridin-2-ylmethyl]-amide] |
| 1.38 | – | 2 | Cn1ncc2c1CN(C(=O)NCc1ccc(S(=O)(=O)c3ccccc3)cn1)C2 [Example 179, N-[[5-(benzenesulfonyl)-2-pyridyl]methyl]-1-methyl-4,6-dihydropyrrolo[3,4-c]pyrazole-5-carboxamide] |
| 0.014 | 0.0102 | – | O=C(NCc1ccc(S(=O)(=O)c2ccc(N3CCOCC3)nc2)cn1)N1Cc2ccncc2C1 [Example 125, N-[[5-[(6-morpholino-3-pyridyl)sulfonyl]-2-pyridyl]methyl]-1,3-dihydropyrrolo[3,4-c]pyridine-2-carboxamide] |
| 0.0101 | 0.00287 | – | CCN(C)c1ncc(S(=O)(=O)c2ccc(CNC(=O)c3ccc4nccn4c3)nc2)s1 [Example 145, N-[[5-[2-[ethyl(methyl)amino]thiazol-5-yl]sulfonyl-2-pyridyl]methyl]imidazo[1,2-a]pyridine-6-carboxamide] |
| 0.0992 | – | 2 | O=C(NCc1ccc(S(=O)(=O)c2ccccc2)cn1)c1ccc2nccn2c1 [Example 184, N-[[5-(benzenesulfonyl)-2-pyridyl]methyl]imidazo[1,2-a]pyridine-6-carboxamide] |
| 0.0327 | 0.0363 | – | O=C(NCc1ccc(S(=O)(=O)C2CCN(C3CCOC3)CC2)cn1)N1Cc2ccncc2C1 (stereo not drawn) [Example 129, N-[[5-[(1-tetrahydrofuran-3-yl-4-piperidyl)sulfonyl]-2-pyridyl]methyl]-1,3-dihydropyrrolo[3,4-c]pyridine-2-carboxamide] |
| 0.0193 | 0.0381 | – | CCS(=O)(=O)c1cccc(S(=O)(=O)c2ccc(CNC(=O)c3ccc4nccn4c3)nc2)c1 [Example 96, Imidazo[1,2-a]pyridine-6-carboxylic acid [5-(3-ethanesulfonyl-benzenesulfonyl)-pyridin-2-ylmethyl]-amide] |
| 0.0375 | – | 0.0145 | O=C(NCc1ccc(S(=O)(=O)C2CCN(C3CCOCC3)CC2)cn1)N1Cc2ccncc2C1 [Example 119, N-[[5-[(1-tetrahydropyran-4 yl-4-piperidyl)sulfonyl]-2-pyridyl]methyl]-1,3-dihydropyrrolo[3,4-c]pyridine-2-carboxamide] |
| 1.74 | 1.34 | – | O=C(NCc1ccc(S(=O)(=O)C2CCN(CC(F)(F)F)CC2)cn1)c1cnc2[nH]ncc2c1 [Example 153, N-[[5-[[1-(2,2,2-trifluoroethyl)-4-piperidyl]sulfonyl]-2-pyridyl]methyl]-1H-pyrazolo[3,4-b]pyridine-5-carboxamide] |
